Assay results published in ChEMBL document CHEMBL3351417, “Thiophene-3-carboxamide analogue of annonaceous acetogenins as antitumor drug lead” (Eur J Med Chem, 2014).

test system: not listed separately; experiment: Growth inhibition of human RXF631L cells after 48 hrs by sulforhodamine B colorimetric assay; type: functional; conditions: RXF 631, 48 h

Structure (SMILES)	GI50 [µM]
CCCCCCCCCCCC[C@@H](O)[C@H]1CC[C@H]([C@H](O)CCCCCCCCCCNC(=O)c2ccoc2)O1	> 100

test system: not listed separately; experiment: Growth inhibition of human SNB78 cells after 48 hrs by sulforhodamine B colorimetric assay; type: functional; conditions: SNB-78, 48 h

Structure (SMILES)	GI50 [µM]
CCCCCCCCCCCC[C@@H](O)[C@H]1CC[C@H]([C@H](O)CCCCCCCCCCNC(=O)c2ccoc2)O1	> 100

test system: not listed separately; experiment: Growth inhibition of human DMS273 cells after 48 hrs by sulforhodamine B colorimetric assay; type: functional; conditions: DMS-273, 48 h

Structure (SMILES)	GI50 [µM]
CCCCCCCCCCCC[C@@H](O)[C@H]1CC[C@H]([C@H](O)CCCCCCCCCCNC(=O)c2ccoc2)O1	> 100

test system: MCF7; experiment: Growth inhibition of human MCF7 cells after 48 hrs by sulforhodamine B colorimetric assay; type: functional; conditions: MCF7, 48 h

GI50 [µM]	Structure (SMILES)
26.9	CCCCCCCCCCCC[C@@H](O)[C@H]1CC[C@H]([C@H](O)CCCCCCCCCCNC(=O)c2ccoc2)O1

test system: NCI-H23; experiment: Growth inhibition of human NCI-H23 cells after 48 hrs by sulforhodamine B colorimetric assay; type: functional; conditions: NCI-H23, 48 h

GI50 [µM]	Structure (SMILES)
3.02	CCCCCCCCCCCC[C@@H](O)[C@H]1CC[C@H]([C@H](O)CCCCCCCCCCNC(=O)c2ccoc2)O1

test system: not listed separately; experiment: Growth inhibition of human MKN1 cells after 48 hrs by sulforhodamine B colorimetric assay; type: functional; conditions: MKN-1, 48 h

Structure (SMILES)	GI50 [µM]
CCCCCCCCCCCC[C@@H](O)[C@H]1CC[C@H]([C@H](O)CCCCCCCCCCNC(=O)c2ccoc2)O1	> 100

test system: A549; experiment: Growth inhibition of human A549 cells after 48 hrs by sulforhodamine B colorimetric assay; type: functional; conditions: A549, 48 h

GI50 [µM]	Structure (SMILES)
> 100	CCCCCCCCCCCC[C@@H](O)[C@H]1CC[C@H]([C@H](O)CCCCCCCCCCNC(=O)c2ccoc2)O1

test system: SNB-75; experiment: Growth inhibition of human SNB75 cells after 48 hrs by sulforhodamine B colorimetric assay; type: functional; conditions: SNB-75, 48 h

Structure (SMILES)	GI50 [µM]
CCCCCCCCCCCC[C@@H](O)[C@H]1CC[C@H]([C@H](O)CCCCCCCCCCNC(=O)c2ccoc2)O1	> 100

test system: NCI-H522; experiment: Growth inhibition of human NCI-H522 cells after 48 hrs by sulforhodamine B colorimetric assay; type: functional; conditions: NCI-H522, 48 h

GI50 [µM]	Structure (SMILES)
10	CCCCCCCCCCCC[C@@H](O)[C@H]1CC[C@H]([C@H](O)CCCCCCCCCCNC(=O)c2ccoc2)O1

test system: NCI-H226; experiment: Growth inhibition of human NCI-H226 cells after 48 hrs by sulforhodamine B colorimetric assay; type: functional; conditions: NCI-H226, 48 h

GI50 [µM]	Structure (SMILES)
> 100	CCCCCCCCCCCC[C@@H](O)[C@H]1CC[C@H]([C@H](O)CCCCCCCCCCNC(=O)c2ccoc2)O1

test system: St-4; experiment: Growth inhibition of human St-4 cells after 48 hrs by sulforhodamine B colorimetric assay; type: functional; conditions: St-4, 48 h

Structure (SMILES)	GI50 [µM]
CCCCCCCCCCCC[C@@H](O)[C@H]1CC[C@H]([C@H](O)CCCCCCCCCCNC(=O)c2ccoc2)O1	97.7

test system: not listed separately; experiment: Growth inhibition of human HBC5 cells after 48 hrs by sulforhodamine B colorimetric assay; type: functional; conditions: HBC5, 48 h

Structure (SMILES)	GI50 [µM]
CCCCCCCCCCCC[C@@H](O)[C@H]1CC[C@H]([C@H](O)CCCCCCCCCCNC(=O)c2ccoc2)O1	> 100

test system: MDA-MB-231; experiment: Growth inhibition of human MDA-MB-231 cells after 48 hrs by sulforhodamine B colorimetric assay; type: functional; conditions: MDA-MB-231, 48 h

GI50 [µM]	Structure (SMILES)
> 100	CCCCCCCCCCCC[C@@H](O)[C@H]1CC[C@H]([C@H](O)CCCCCCCCCCNC(=O)c2ccoc2)O1

test system: KM12; experiment: Growth inhibition of human KM12 cells after 48 hrs by sulforhodamine B colorimetric assay; type: functional; conditions: KM12, 48 h

Structure (SMILES)	GI50 [µM]
CCCCCCCCCCCC[C@@H](O)[C@H]1CC[C@H]([C@H](O)CCCCCCCCCCNC(=O)c2ccoc2)O1	> 100

test system: not listed separately; experiment: Growth inhibition of human PC3 cells after 48 hrs by sulforhodamine B colorimetric assay; type: functional; conditions: PC-3, 48 h

Structure (SMILES)	GI50 [µM]
CCCCCCCCCCCC[C@@H](O)[C@H]1CC[C@H]([C@H](O)CCCCCCCCCCNC(=O)c2ccoc2)O1	52.5

test system: not listed separately; experiment: Growth inhibition of human OVCAR3 cells after 48 hrs by sulforhodamine B colorimetric assay; type: functional; conditions: OVCAR-3, 48 h

Structure (SMILES)	GI50 [µM]
CCCCCCCCCCCC[C@@H](O)[C@H]1CC[C@H]([C@H](O)CCCCCCCCCCNC(=O)c2ccoc2)O1	> 100

test system: not listed separately; experiment: Growth inhibition of human MKN74 cells after 48 hrs by sulforhodamine B colorimetric assay; type: functional; conditions: MKN-74, 48 h

Structure (SMILES)	GI50 [µM]
CCCCCCCCCCCC[C@@H](O)[C@H]1CC[C@H]([C@H](O)CCCCCCCCCCNC(=O)c2ccoc2)O1	21.9

test system: HT-29; experiment: Growth inhibition of human HT-29 cells after 48 hrs by sulforhodamine B colorimetric assay; type: functional; conditions: HT-29, 48 h

GI50 [µM]	Structure (SMILES)
> 100	CCCCCCCCCCCC[C@@H](O)[C@H]1CC[C@H]([C@H](O)CCCCCCCCCCNC(=O)c2ccoc2)O1

test system: not listed separately; experiment: Growth inhibition of human HBC4 cells after 48 hrs by sulforhodamine B colorimetric assay; type: functional; conditions: HBC4, 48 h

Structure (SMILES)	GI50 [µM]
CCCCCCCCCCCC[C@@H](O)[C@H]1CC[C@H]([C@H](O)CCCCCCCCCCNC(=O)c2ccoc2)O1	> 100

test system: not listed separately; experiment: Growth inhibition of human HCC2998 cells after 48 hrs by sulforhodamine B colorimetric assay; type: functional; conditions: HCC 2998, 48 h

Structure (SMILES)	GI50 [µM]
CCCCCCCCCCCC[C@@H](O)[C@H]1CC[C@H]([C@H](O)CCCCCCCCCCNC(=O)c2ccoc2)O1	79.4

test system: not listed separately; experiment: Growth inhibition of human HCT15 cells after 48 hrs by sulforhodamine B colorimetric assay; type: functional; conditions: HCT-15, 48 h

Structure (SMILES)	GI50 [µM]
CCCCCCCCCCCC[C@@H](O)[C@H]1CC[C@H]([C@H](O)CCCCCCCCCCNC(=O)c2ccoc2)O1	> 100

test system: SF-268; experiment: Growth inhibition of human SF268 cells after 48 hrs by sulforhodamine B colorimetric assay; type: functional; conditions: SF-268, 48 h

Structure (SMILES)	GI50 [µM]
CCCCCCCCCCCC[C@@H](O)[C@H]1CC[C@H]([C@H](O)CCCCCCCCCCNC(=O)c2ccoc2)O1	> 100

test system: DU-145; experiment: Growth inhibition of human DU145 cells after 48 hrs by sulforhodamine B colorimetric assay; type: functional; conditions: DU-145, 48 h

GI50 [µM]	Structure (SMILES)
> 100	CCCCCCCCCCCC[C@@H](O)[C@H]1CC[C@H]([C@H](O)CCCCCCCCCCNC(=O)c2ccoc2)O1

test system: not listed separately; experiment: Growth inhibition of human LOXIMVI cells after 48 hrs by sulforhodamine B colorimetric assay; type: functional; conditions: LOX IMVI

Structure (SMILES)	GI50 [µM]
CCCCCCCCCCCC[C@@H](O)[C@H]1CC[C@H]([C@H](O)CCCCCCCCCCNC(=O)c2ccoc2)O1	21.9

test system: not listed separately; experiment: Growth inhibition of human MKN28 cells after 48 hrs by sulforhodamine B colorimetric assay; type: functional; conditions: MKN-28, 48 h

Structure (SMILES)	GI50 [µM]
CCCCCCCCCCCC[C@@H](O)[C@H]1CC[C@H]([C@H](O)CCCCCCCCCCNC(=O)c2ccoc2)O1	0.55

test system: not listed separately; experiment: Growth inhibition of human SF295 cells after 48 hrs by sulforhodamine B colorimetric assay; type: functional; conditions: SF-295, 48 h

Structure (SMILES)	GI50 [µM]
CCCCCCCCCCCC[C@@H](O)[C@H]1CC[C@H]([C@H](O)CCCCCCCCCCNC(=O)c2ccoc2)O1	> 100

test system: NCI-H460; experiment: Growth inhibition of human NCI-H460 cells after 48 hrs by sulforhodamine B colorimetric assay; type: functional; conditions: NCI-H460, 48 h

GI50 [µM]	Structure (SMILES)
> 100	CCCCCCCCCCCC[C@@H](O)[C@H]1CC[C@H]([C@H](O)CCCCCCCCCCNC(=O)c2ccoc2)O1

test system: SK-OV-3; experiment: Growth inhibition of human SKOV3 cells after 48 hrs by sulforhodamine B colorimetric assay; type: functional; conditions: SK-OV-3, 48 h

GI50 [µM]	Structure (SMILES)
> 100	CCCCCCCCCCCC[C@@H](O)[C@H]1CC[C@H]([C@H](O)CCCCCCCCCCNC(=O)c2ccoc2)O1

test system: not listed separately; experiment: Growth inhibition of human SF539 cells after 48 hrs by sulforhodamine B colorimetric assay; type: functional; conditions: SF-539, 48 h

Structure (SMILES)	GI50 [µM]
CCCCCCCCCCCC[C@@H](O)[C@H]1CC[C@H]([C@H](O)CCCCCCCCCCNC(=O)c2ccoc2)O1	> 100

test system: not listed separately; experiment: Growth inhibition of human OVCAR8 cells after 48 hrs by sulforhodamine B colorimetric assay; type: functional; conditions: OVCAR-8, 48 h

Structure (SMILES)	GI50 [µM]
CCCCCCCCCCCC[C@@H](O)[C@H]1CC[C@H]([C@H](O)CCCCCCCCCCNC(=O)c2ccoc2)O1	66.1

test system: ACHN; experiment: Growth inhibition of human ACHN cells after 48 hrs by sulforhodamine B colorimetric assay; type: functional; conditions: not given

GI50 [µM]	Structure (SMILES)
> 100	CCCCCCCCCCCC[C@@H](O)[C@H]1CC[C@H]([C@H](O)CCCCCCCCCCNC(=O)c2ccoc2)O1

test system: not listed separately; experiment: Growth inhibition of human DMS114 cells after 48 hrs by sulforhodamine B colorimetric assay; type: functional; conditions: DMS-114, 48 h

Structure (SMILES)	GI50 [µM]
CCCCCCCCCCCC[C@@H](O)[C@H]1CC[C@H]([C@H](O)CCCCCCCCCCNC(=O)c2ccoc2)O1	0.191

test system: not listed separately; experiment: Growth inhibition of human HCT116 cells after 48 hrs by sulforhodamine B colorimetric assay; type: functional; conditions: HCT-116, 48 h

Structure (SMILES)	GI50 [µM]
CCCCCCCCCCCC[C@@H](O)[C@H]1CC[C@H]([C@H](O)CCCCCCCCCCNC(=O)c2ccoc2)O1	3.47

test system: not listed separately; experiment: Growth inhibition of human OVCAR5 cells after 48 hrs by sulforhodamine B colorimetric assay; type: functional; conditions: OVCAR-5, 48 h

Structure (SMILES)	GI50 [µM]
CCCCCCCCCCCC[C@@H](O)[C@H]1CC[C@H]([C@H](O)CCCCCCCCCCNC(=O)c2ccoc2)O1	> 100

test system: not listed separately; experiment: Growth inhibition of human BSY1 cells after 48 hrs by sulforhodamine B colorimetric assay; type: functional; conditions: BSY-1, 48 h

Structure (SMILES)	GI50 [µM]
CCCCCCCCCCCC[C@@H](O)[C@H]1CC[C@H]([C@H](O)CCCCCCCCCCNC(=O)c2ccoc2)O1	2.19

test system: not listed separately; experiment: Growth inhibition of human MKN7 cells after 48 hrs by sulforhodamine B colorimetric assay; type: functional; conditions: MKN-7, 48 h

Structure (SMILES)	GI50 [µM]
CCCCCCCCCCCC[C@@H](O)[C@H]1CC[C@H]([C@H](O)CCCCCCCCCCNC(=O)c2ccoc2)O1	0.372

test system: not listed separately; experiment: Growth inhibition of human MKN45 cells after 48 hrs by sulforhodamine B colorimetric assay; type: functional; conditions: MKN-45, 48 h

Structure (SMILES)	GI50 [µM]
CCCCCCCCCCCC[C@@H](O)[C@H]1CC[C@H]([C@H](O)CCCCCCCCCCNC(=O)c2ccoc2)O1	> 100

test system: not listed separately; experiment: Growth inhibition of human OVCAR4 cells after 48 hrs by sulforhodamine B colorimetric assay; type: functional; conditions: OVCAR-4, 48 h

Structure (SMILES)	GI50 [µM]
CCCCCCCCCCCC[C@@H](O)[C@H]1CC[C@H]([C@H](O)CCCCCCCCCCNC(=O)c2ccoc2)O1	74.1

test system: U-251; experiment: Growth inhibition of human U251 cells after 48 hrs by sulforhodamine B colorimetric assay; type: functional; conditions: U-251, 48 h

GI50 [µM]	Structure (SMILES)
> 100	CCCCCCCCCCCC[C@@H](O)[C@H]1CC[C@H]([C@H](O)CCCCCCCCCCNC(=O)c2ccoc2)O1
